Measured values: ChEMBL document CHEMBL5705887, “Distinct concentration-dependent effects of the polo-like kinase 1-specific inhibitor GSK461364A, including differential effect on apoptosis” (Cancer Res, 2009)
Active and inactive are the calls of the source. The calls are words filed in the database; no cut-off is given here.

Key:
COLO 205 [1] = experiment: Antitumor activity against human COLO 205 cells xenografted in Nude mouse assessed as tumor growth delay time at 100 mg/kg, ip administered every 2 to 4 days; format: functional; conditions: time 2-4 day
SK-MEL3 = experiment: Antiproliferative activity against human SK-MEL3 cells assessed as growth inhibition incubated for 72 hrs by celltiter-glo assay; format: functional
[2] = target: Serine/threonine-protein kinase WNK3 (Homo sapiens) (UniProt Q9BYP7); experiment: Inhibition of N-terminal his6-tagged recombinant human WNK3 (1 to 434 residues) expressed in baculovirus Sf21 insect cells at 10 uM relative to control
Chain of Serine/threonine-protein kinase WNK3 (Homo sapiens) (Q9BYP7 whole entry, the tested form may be a part): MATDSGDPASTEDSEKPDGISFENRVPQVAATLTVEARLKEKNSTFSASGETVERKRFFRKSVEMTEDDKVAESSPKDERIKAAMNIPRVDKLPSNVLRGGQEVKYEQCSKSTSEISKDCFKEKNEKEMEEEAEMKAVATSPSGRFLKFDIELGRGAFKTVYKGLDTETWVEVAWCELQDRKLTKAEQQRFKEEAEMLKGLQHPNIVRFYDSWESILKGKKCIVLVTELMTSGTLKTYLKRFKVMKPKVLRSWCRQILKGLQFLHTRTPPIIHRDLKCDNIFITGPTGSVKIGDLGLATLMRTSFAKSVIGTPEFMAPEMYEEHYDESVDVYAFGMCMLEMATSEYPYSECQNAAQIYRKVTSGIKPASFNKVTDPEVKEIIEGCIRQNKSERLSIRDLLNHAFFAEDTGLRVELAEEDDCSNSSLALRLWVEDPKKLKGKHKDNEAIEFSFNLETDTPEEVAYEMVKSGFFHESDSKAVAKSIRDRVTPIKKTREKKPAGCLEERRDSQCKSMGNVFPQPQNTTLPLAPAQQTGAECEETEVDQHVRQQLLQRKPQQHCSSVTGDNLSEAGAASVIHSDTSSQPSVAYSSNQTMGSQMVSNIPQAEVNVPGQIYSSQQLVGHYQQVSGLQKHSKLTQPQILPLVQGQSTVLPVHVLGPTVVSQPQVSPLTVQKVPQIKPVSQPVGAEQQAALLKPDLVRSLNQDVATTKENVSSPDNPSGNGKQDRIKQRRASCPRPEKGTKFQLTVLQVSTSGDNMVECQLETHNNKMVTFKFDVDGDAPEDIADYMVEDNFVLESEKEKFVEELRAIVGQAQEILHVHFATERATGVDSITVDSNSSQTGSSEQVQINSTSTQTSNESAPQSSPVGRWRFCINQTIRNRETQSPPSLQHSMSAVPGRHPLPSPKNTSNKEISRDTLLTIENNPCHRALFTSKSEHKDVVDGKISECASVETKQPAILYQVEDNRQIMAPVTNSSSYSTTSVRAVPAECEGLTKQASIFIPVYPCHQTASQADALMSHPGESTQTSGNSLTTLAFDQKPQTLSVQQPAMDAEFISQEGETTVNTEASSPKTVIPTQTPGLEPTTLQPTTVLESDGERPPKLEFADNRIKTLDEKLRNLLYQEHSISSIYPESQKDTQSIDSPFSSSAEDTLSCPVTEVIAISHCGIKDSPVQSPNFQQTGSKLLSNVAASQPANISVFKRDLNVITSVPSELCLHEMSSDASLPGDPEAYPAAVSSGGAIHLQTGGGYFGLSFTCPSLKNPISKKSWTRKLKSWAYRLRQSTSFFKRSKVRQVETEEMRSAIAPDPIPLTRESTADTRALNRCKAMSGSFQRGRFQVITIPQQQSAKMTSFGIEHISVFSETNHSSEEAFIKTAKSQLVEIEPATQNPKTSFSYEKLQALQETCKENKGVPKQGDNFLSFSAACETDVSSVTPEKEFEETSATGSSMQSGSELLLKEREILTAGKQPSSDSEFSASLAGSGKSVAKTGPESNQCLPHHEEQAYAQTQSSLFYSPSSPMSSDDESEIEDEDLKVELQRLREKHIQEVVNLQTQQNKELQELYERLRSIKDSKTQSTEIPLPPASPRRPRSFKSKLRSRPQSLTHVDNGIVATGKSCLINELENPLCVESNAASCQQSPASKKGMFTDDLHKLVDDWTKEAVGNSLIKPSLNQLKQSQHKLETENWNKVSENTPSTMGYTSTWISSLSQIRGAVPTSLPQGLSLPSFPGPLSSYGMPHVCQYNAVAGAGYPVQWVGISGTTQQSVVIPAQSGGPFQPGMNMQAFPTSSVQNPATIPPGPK

BT-474 = experiment: Antiproliferative activity against human BT-474 cells assessed as growth inhibition incubated for 72 hrs by celltiter-glo assay; format: functional
HCT-15 [3] = experiment: Antiproliferative activity against human HCT-15 cells assessed as growth inhibition incubated for 72 hrs by celltiter-glo assay; format: functional
A-427 = experiment: Antiproliferative activity against human A-427 cells assessed as of viable cell signal at minimum maximum cell growth incubated for 72 hrs by celltiter-glo assay relative to control; format: functional
HCC1937 [4] = experiment: Antiproliferative activity against human HCC1937 cells assessed as viable cell signal at maximum growth inhibition incubated for 72 hrs by celltiter-glo assay relative to control; format: functional
NCI-H322M = experiment: Antiproliferative activity against human NCI-H322M cells assessed as viable cell signal at maximum growth inhibition incubated for 72 hrs by celltiter-glo assay relative to control; format: functional
Jurkat = experiment: Antiproliferative activity against human Jurkat cells assessed as of viable cell signal at minimum maximum cell growth incubated for 72 hrs by celltiter-glo assay relative to control; format: functional
HCC1937 [5] = experiment: Antiproliferative activity against human HCC1937 cells assessed as of viable cell signal at minimum maximum cell growth incubated for 72 hrs by celltiter-glo assay relative to control; format: functional
OVCAR-8 = experiment: Antiproliferative activity against human OVCAR-8 cells assessed as viable cell signal at maximum growth inhibition incubated for 72 hrs by celltiter-glo assay relative to control; format: functional
Hep 3B2 = experiment: Antiproliferative activity against human Hep3B cells assessed as of viable cell signal at minimum maximum cell growth incubated for 72 hrs by celltiter-glo assay relative to control; format: functional
HCT-15 [6] = experiment: Antiproliferative activity against human HCT-15 cells assessed as of viable cell signal at minimum maximum cell growth incubated for 72 hrs by celltiter-glo assay relative to control; format: functional
SAOS-2 = experiment: Antiproliferative activity against human SAOS-2 cells assessed as viable cell signal at maximum growth inhibition incubated for 72 hrs by celltiter-glo assay relative to control; format: functional
RKO = experiment: Antiproliferative activity against human RKO cells assessed as growth inhibition incubated for 72 hrs by celltiter-glo assay; format: functional
THP-1 = experiment: Antiproliferative activity against human THP-1 cells assessed as viable cell signal at maximum growth inhibition incubated for 72 hrs by celltiter-glo assay relative to control; format: functional
COLO 205 [7] = experiment: Antitumor activity against human COLO 205 cells xenografted in Nude mouse assessed as increase in pIk1 level at 50 to 100 mg/kg, ip administered one dose every 2 day repeated for 12 days by immunohistochemistry analysis; format: functional, organism-based; conditions: dose 50-100 mg/kg, time 12.0 day
MDA-MB-453 = experiment: Antiproliferative activity against human MDA-MB-453 cells assessed as viable cell signal at maximum growth inhibition incubated for 72 hrs by celltiter-glo assay relative to control; format: functional
NCI-H727 [8] = experiment: Antiproliferative activity against human NCI-H727 cells assessed as viable cell signal at maximum growth inhibition incubated for 72 hrs by celltiter-glo assay relative to control; format: functional
A704 = experiment: Antiproliferative activity against human A704 cells assessed as viable cell signal at maximum growth inhibition incubated for 72 hrs by celltiter-glo assay relative to control; format: functional
Calu-1 = experiment: Antiproliferative activity against human Calu-1 cells assessed as viable cell signal at maximum growth inhibition incubated for 72 hrs by celltiter-glo assay relative to control; format: functional
PANC-1 = experiment: Antiproliferative activity against human PANC-1 cells assessed as of viable cell signal at minimum maximum cell growth incubated for 72 hrs by celltiter-glo assay relative to control; format: functional
[9] = Antiproliferative activity against human PL45 cells assessed as of viable cell signal at minimum maximum cell growth incubated for 72 hrs by celltiter-glo assay relative to control; format: functional
HT-29 [10] = experiment: Antiproliferative activity against human HT-29 cells assessed as of viable cell signal at minimum maximum cell growth incubated for 72 hrs by celltiter-glo assay relative to control; format: functional
LNCaP = experiment: Antiproliferative activity against human LNCaP cells assessed as viable cell signal at maximum growth inhibition incubated for 72 hrs by celltiter-glo assay relative to control; format: functional
[11] = target: Serine/threonine-protein kinase pim-1 (Homo sapiens) (UniProt P11309); experiment: Inhibition of full length N-terminal GST-tagged recombinant human PIM1 expressed in Escherichia coli at 10 uM relative to control
Chain of Serine/threonine-protein kinase pim-1 (Homo sapiens) (P11309 whole entry, looked up): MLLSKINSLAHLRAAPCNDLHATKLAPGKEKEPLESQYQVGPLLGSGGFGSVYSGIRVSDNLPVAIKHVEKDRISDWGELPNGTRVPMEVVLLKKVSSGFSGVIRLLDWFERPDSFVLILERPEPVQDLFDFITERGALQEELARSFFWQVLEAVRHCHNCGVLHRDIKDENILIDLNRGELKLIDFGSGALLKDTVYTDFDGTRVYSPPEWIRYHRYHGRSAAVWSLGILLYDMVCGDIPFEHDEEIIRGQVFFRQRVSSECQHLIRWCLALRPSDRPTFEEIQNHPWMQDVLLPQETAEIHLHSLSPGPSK

HT-29 [12] = experiment: Antiproliferative activity against human HT-29 cells assessed as growth inhibition incubated for 72 hrs by celltiter-glo assay; format: functional
NCI-H727 [13] = experiment: Antiproliferative activity against human NCI-H727 cells assessed as of viable cell signal at minimum maximum cell growth incubated for 72 hrs by celltiter-glo assay relative to control; format: functional
Raji = experiment: Antiproliferative activity against human Raji cells assessed as of viable cell signal at minimum maximum cell growth incubated for 72 hrs by celltiter-glo assay relative to control; format: functional
COLO 205 [14] = experiment: Antitumor activity against human COLO 205 cells xenografted in Nude mouse assessed as disorganized condense chromatin at 50 to 100 mg/kg, ip measured at 24 to 48 hrs by H and E staining based analysis; format: functional, organism-based; conditions: dose 50-100 mg/kg, time 24-48 hrs
K562 = experiment: Antiproliferative activity against human K562 cells assessed as growth inhibition incubated for 72 hrs by celltiter-glo assay; format: functional
LoVo = experiment: Antiproliferative activity against human LoVo cells assessed as growth inhibition incubated for 72 hrs by celltiter-glo assay; format: functional
A549 = experiment: Induction of mitotic arrest in human A549 cells assessed as disordered spindle formation at 313 nmol/L incubated for 16 hrs by alpha-tubulin/DAPI staining based confocal microscopic analysis; format: functional, cell-based
HCT-116 = experiment: Antiproliferative activity against human HCT-116 cells assessed as growth inhibition incubated for 72 hrs by celltiter-glo assay; format: functional
NCI-N87 = experiment: Antiproliferative activity against human NCI-N87 cells assessed as growth inhibition incubated for 72 hrs by celltiter-glo assay; format: functional
U2OS = experiment: Induction of mitotic arrest in human U2OS cells expressing fused cyclin B1-GFP at 10 to 250 nmol/L incubated for 24 hrs by image based analysis; format: functional, cell-based; conditions: dose 10-250 nmol/L
HCC1937 [15] = experiment: Antiproliferative activity against human HCC1937 cells assessed as growth inhibition incubated for 72 hrs by celltiter-glo assay; format: functional
A2780 = experiment: Antiproliferative activity against human A2780 cells assessed as growth inhibition incubated for 72 hrs by celltiter-glo assay; format: functional
NCI-H460 = experiment: Antiproliferative activity against human NCI-H460 cells assessed as viable cell signal at maximum growth inhibition incubated for 72 hrs by celltiter-glo assay relative to control; format: functional
PANC-08-13 = experiment: Antiproliferative activity against human PANC-08-13 cells assessed as viable cell signal at maximum growth inhibition incubated for 72 hrs by celltiter-glo assay relative to control; format: functional

Question: With `C[C@@H](Oc1cc(-n2cnc3ccc(CN4CCN(C)CC4)cc32)sc1C(N)=O)c1ccccc1C(F)(F)F` [GSK-461364] as the molecule, how does the Time (COLO 205 [1]) read?
Answer: 18 days

Question: What about the GI50 (SK-MEL3) of the same molecule?
Answer: 17.6 nM

Question: What about the inhibition [2] of the same molecule?
Answer: 68%

Question: And the GI50 (BT-474)?
Answer: 7090 nM

Question: And the GI50 (HCT-15 [3])?
Answer: 90.8 nM

Question: What about the Emin (A-427) of the same molecule?
Answer: 15.4%

Question: And the Emax (HCC1937 [4])?
Answer: 240%

Question: What about the Emax (NCI-H322M) of the same molecule?
Answer: 611%

Question: What about the Emin (Jurkat) of the same molecule?
Answer: 2.2%

Question: And the Emin (HCC1937 [5])?
Answer: 100%

Question: And the Emax (OVCAR-8)?
Answer: 567%

Question: And the Emin (Hep 3B2)?
Answer: 132.1%

Question: What about the Emin (HCT-15 [6]) of the same molecule?
Answer: 75%

Question: What about the Emax (SAOS-2) of the same molecule?
Answer: 403%

Question: What about the GI50 (RKO) of the same molecule?
Answer: 62.9 nM

Question: What about the Emax (THP-1) of the same molecule?
Answer: 349%

Question: What about the Activity (COLO 205 [7]) of the same molecule?
Answer: Active

Question: And the Emax (MDA-MB-453)?
Answer: 489%

Question: And the Emax (NCI-H727 [8])?
Answer: 262%

Question: And the Emax (A704)?
Answer: 255%

Question: What about the Emax (Calu-1) of the same molecule?
Answer: 371%

Question: What about the Emin (PANC-1) of the same molecule?
Answer: 114.1%

Question: And the Emin [9]?
Answer: 101.2%

Question: And the Emin (HT-29 [10])?
Answer: 327.7%

Question: And the Emax (LNCaP)?
Answer: 470%

Question: What about the inhibition [11] of the same molecule?
Answer: 90%

Question: What about the GI50 (HT-29 [12]) of the same molecule?
Answer: 8.1 nM

Question: And the Emin (NCI-H727 [13])?
Answer: 158.9%

Question: And the Emin (Raji)?
Answer: 5.1%

Question: And the Activity (COLO 205 [14])?
Answer: Active

Question: What about the GI50 (K562) of the same molecule?
Answer: 19.4 nM

Question: What about the GI50 (LoVo) of the same molecule?
Answer: 12.2 nM

Question: What about the Activity (A549) of the same molecule?
Answer: Active

Question: What about the GI50 (HCT-116) of the same molecule?
Answer: 50.5 nM

Question: And the GI50 (NCI-N87)?
Answer: 21.5 nM

Question: What about the Activity (U2OS) of the same molecule?
Answer: inactive

Question: And the GI50 (HCC1937 [15])?
Answer: 4790 nM

Question: And the GI50 (A2780)?
Answer: 28.1 nM

Question: What about the Emax (NCI-H460) of the same molecule?
Answer: 952%

Question: And the Emax (PANC-08-13)?
Answer: 256%
